Results on 2 compounds are retold here after patent US7018457B2, “Azo metal-complexed dyes, ink jet ink compositions and ink jet printing methods” (Polaroid Corporation, priority 2002, dated 2006).

Holding throughout (type): physicochemical
A short description of data set [1]: Ozone stability of dye coatings in an ozone chamber. The following applies: Epson paper; about 10 PPM ozone; 16 hours, 8 lamp cycles.
A short description of data set [2]: Light stability of dye coatings on receiver papers, Xenon arc at 10,000 ft. candles. The following applies: for % Density Loss (Y) after 5 Day Xe Arc, Epson / % Density Loss (Y) after 5 Day Xe Arc, Kodak / % Density Loss (Y) after 5 Day Xe Arc, Watercolor: 5 days. The protocol:
(§1) Experiments were carried out with Kodak® Premium Glossy Paper (available from Eastman Kodak Company, Rochester, N.Y.), Epson Premium Glossy Photo Paper (available from Epson Corporation) and Somerset Radiant White watercolor paper (a 100% cotton fiber paper with little or no sizing).
(§2) The dye samples were prepared by initially making a concentrated ink jet fluid (Fluid A) with 35.2% 1,5-pentanediol, 24.8% 2-pyrollidinone, 20% trimethylolpropane and 20% water (by weight). Two parts by weight of Fluid A were diluted with eight parts of water to form Fluid B consisting of approximately 7% 1,5-pentanediol, 5% 2-pyrollidinone, 4% trimethylolpropane and 84% water.
(§3) The test fluids were prepared by dissolving approximately 20 mg of dye with heating and vortex stirring into 1 gram of Fluid B. Once a clear fluid was obtained, the fluid was coated on the ink jet receiver material with a #4 Meyer rod. The coating was dried and the reflection density was measured. When the density was not in the range of from 0.7 to 1.3 the test fluid was diluted with additional Fluid B and the coatings repeated until the reflection density was in the range specified above.
(§4) Samples of the dyes were applied to the papers in a thin film as described above, air dried and the sample exposed in a Xenon arc at 10,000 ft. candles and also to cool white fluorescent bulbs with an irradiance of 2,500 ft. candles.
This example illustrates the light stability of the dyes of formulas V–XV in xenon arc testing. The tests were carried out as described in Example II.
The ozone tests were conducted in an ozone chamber constructed from a large Pyrex jar having a volume of approximately 1.2 ft.^3 and a low temperature mercury-argon lamp (Oriel 6035). Ozone was produced in situ by the direct photolysis of oxygen in the ambient air within the chamber. A fan in the chamber ensured that all the samples were uniformly exposed to the ozone. The lamp power supply was energized under the control of a timer such that the lamp was on for 15 minutes every two hours thereby producing an average ozone concentration of about 10 PPM (24 mg/m^3). The test was carried out for 16 hours, or 8 lamp cycles. The ozone tests were carried out on Epson paper. The light stability experiments were carried out for 5 days at […] on Kodak Glossy Paper.

A short description of data set [3]: Light stability of dye coatings on receiver papers, cool white fluorescent bulbs at 2,500 ft. candles. The following applies: cool white fluorescent 2,500 ft. candles. How it is done:
as §1, §2, §3, §4

The structures appear in SMILES notation.

Turning to `Cc1nn(-c2ccc(S(=O)(=O)[O-])cc2)c(O)c1N=Nc1ccc(S(=O)(=O)[O-])cc1C(=O)[O-].[Na+].[Na+].[Na+]` [Control, 2-[5-hydroxy-3-methyl-1-(4-sulfophenyl)-1H-pyrazol-4-ylazo]-5-sulfobenzoic acid sodium salt], in data set [1], the “% Loss in Density, Ozone” value is on record as −29%. Besides, the “% Density Loss (Y) after 5 Day Xe Arc, Epson” value in data set [2] (Epson Premium Glossy Photo Paper, Xenon arc 10,000 ft. candles) is −7%. The “% Loss in Density, Light” value in data set [2] (Kodak Glossy Paper, 5 days at 10,00 ft. candles) is given as −90%. In data set [2] (Kodak Premium Glossy Paper, Xenon arc 10,000 ft. candles), the “% Density Loss (Y) after 5 Day Xe Arc, Kodak” value was −85%. Besides, the “% Density Loss (Y) after 5 Day Xe Arc, Watercolor” value in data set [2] (Somerset Radiant White watercolor paper, Xenon arc 10,000 ft. candles) is reported as −23%. Moreover, the “% Density Loss after 3 weeks under fluorescent light, Epson” value in data set [3] (Epson paper) came to 1%. Further, the “% Density Loss after 3 weeks under fluorescent light, Kodak” value in data set [3] (Kodak paper) is −51%. The “% Density Loss after 3 weeks under fluorescent light, Watercolor” value in data set [3] (watercolor paper) is recorded as −7%.
With `Cc1nn(-c2ccc(S(=O)(=O)[O-])cc2)c2c1N=Nc1ccc(S(=O)(=O)[O-])cc1C(=O)[O][Co][O]2.O.[Na+].[Na+]` [VI], the “% Density Loss (Y) after 5 Day Xe Arc, Epson” value in data set [2] (Table IV, Epson paper, Xenon arc as in Example II) is given as 17%. Also, the “% Density Loss (Y) after 5 Day Xe Arc, Kodak” value in data set [2] (Table IV, Kodak paper, Xenon arc as in Example II) is given as −52%. For the same compound, in data set [2] (Table IV, watercolor paper, Xenon arc as in Example II), the “% Density Loss (Y) after 5 Day Xe Arc, Watercolor” value is recorded as −19%.
